In PMC3996151, “Safety and pharmacological characterization of the molecular tweezer CLR01 – a broad-spectrum inhibitor of amyloid proteins’ toxicity” (BMC Pharmacology & Toxicology, 2014):

How the values were obtained:
[1] = Solubility in aqueous solutions; assay type: physicochemical
[2] = In vitro dephosphorylation by brain homogenate (inorganic phosphate release); assay type: in vitro ADME, mouse; settings: positive control substrate, 1.5 mg mouse-brain homogenate
Procedure: Potential dephosphorylation of CLR01 was analyzed by incubating 100 nmol CLR01 with 0.08 units of alkaline phosphatase (ALP; calf intestinal alkaline phosphatase, Promega, Madison, Wisconsin) for 60 min at 60°C. One enzymatic unit is defined as the amount of enzyme required for catalyzing the hydrolysis of 1 μmol of p-nitrophenylphosphate per minute. p-Nitrophenylphosphate disodium salt at 5–50 nmol (Fisher, Waltham, Massachusetts) was used for generation of a standard curve. The amount of inorganic phosphate generated was measured spectrophotometrically using an EnzChek Phosphate Assay kit (Life Technologies, Carlsbad, California) according to the manufacturer’s instructions on a DU-640 spectrophotometer (Beckman Coulter, Brea, California) at λ = 360 nm. Baseline values were subtracted from readings and compared to the standard curve resulting from serial ALP reactions to calculate the amount of inorganic phosphate. Similarly, potential dephosphorylation of CLR01 by brain homogenates was measured. For these experiments, one brain hemisphere was homogenized by sonication in the presence of cOmplete protease-inhibitor cocktail (Roche, Penzberg, Germany). Protein concentration was measured using a BCA Protein Assay Kit (Pierce, Rockford, Illinois). […]

| Dephosphorylation by brain homogenate, % of the activity of 0.8 enzymatic units of ALP [2] | Compound | Solubility in aqueous solutions [1] |
| --- | --- | --- |
|  | O=P(O)(O)Oc1c2c(c(O)c3c1C1CC3c3cc4c(cc31)C1CC4c3ccccc31)C1CC2c2cc3c(cc21)C1CC3c2ccccc21 [monophosphate metabolite] | soluble at millimolar concentrations |
| 99 - 130% | O=[N+]([O-])c1ccc(OP(=O)(O)O)cc1 [p-nitrophenylphosphate, reference compound] |  |
